≈ marks a conversion by molar mass, not a printed value.
What was measured:
[1] = Clearance in rat; format: ADME, organism-based; conditions: in vivo
[2] = Intrinsic clearance in rat per 10^6 cells; format: ADME
[3] = Percent of unbound ligand in rat plasma; format: ADME, organism-based
Rattus norvegicus [4] = species: Rattus norvegicus; experiment: Unbound clearance in rat; format: ADME, organism-based; conditions: in vivo
[5] = Clearance in dog; format: ADME, organism-based, Canis lupus familiaris; conditions: in vivo
[6] = Intrinsic clearance in dog per 10^6 cells; format: ADME, Canis lupus familiaris; conditions: not recorded
Canis familiaris [7] = species: Canis familiaris; experiment: Unbound clearance in dog; format: ADME, organism-based, Canis lupus familiaris; conditions: in vivo
[8] = Solubility of the compound; format: physicochemical
[9] = Bioavailability in rat; format: ADME, organism-based; conditions: in vivo
[10] = Bioavailability in dog; format: ADME, organism-based, Canis lupus familiaris; conditions: in vivo
Rattus norvegicus [11] = species: Rattus norvegicus; experiment: Decrease in glucose level in Zucker rat by oral glucose tolerance test; format: ADME, organism-based; conditions: in vivo
Rattus norvegicus [12] = experiment: Decrease in glucose level in Zucker rat at 3 mg/kg, po by oral glucose tolerance test; format: ADME, organism-based; parameters: dose 3 mg/kg, route oral; conditions: in vivo
Hexokinase-4 = molecular target: T1, Hexokinase-4 (Homo sapiens, UniProt P35557)
T1 sequence (P35557 whole entry): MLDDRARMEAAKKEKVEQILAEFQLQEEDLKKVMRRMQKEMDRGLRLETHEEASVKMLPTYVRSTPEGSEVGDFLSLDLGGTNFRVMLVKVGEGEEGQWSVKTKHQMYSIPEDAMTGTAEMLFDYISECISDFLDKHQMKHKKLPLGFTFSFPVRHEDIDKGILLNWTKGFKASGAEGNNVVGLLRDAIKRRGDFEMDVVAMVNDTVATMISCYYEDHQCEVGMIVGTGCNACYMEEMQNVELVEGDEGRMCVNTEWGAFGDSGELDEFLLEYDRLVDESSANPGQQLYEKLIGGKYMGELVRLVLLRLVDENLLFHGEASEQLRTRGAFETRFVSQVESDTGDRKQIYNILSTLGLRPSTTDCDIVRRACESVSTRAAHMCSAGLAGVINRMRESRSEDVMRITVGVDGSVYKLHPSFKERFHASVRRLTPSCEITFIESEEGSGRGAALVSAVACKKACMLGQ
Description: Activation of glucokinase

Rattus norvegicus [13] = experiment: Decrease in glucose level in Zucker rat at 1 mg/kg, po by oral glucose tolerance test; format: ADME, organism-based; parameters: dose 1 mg/kg, route oral; conditions: in vivo
Rattus norvegicus [14] = species: Rattus norvegicus; experiment: Hepatic blood flow in rat; format: ADME, organism-based, Liver
Rattus norvegicus [15] = species: Rattus norvegicus; experiment: Clearance in rat measured as percent of hepatic blood flow; format: ADME, organism-based, Liver; conditions: in vivo
Canis familiaris [16] = species: Canis familiaris; experiment: Hepatic blood flow in dog; format: ADME, organism-based, Canis lupus familiaris, Liver
Canis familiaris [17] = species: Canis familiaris; experiment: Clearance in dog measured as percent of hepatic blood flow; format: ADME, organism-based, Canis lupus familiaris, Liver; conditions: in vivo
[18] = Percent of unbound ligand in dog plasma; format: ADME, organism-based, Canis lupus familiaris

Row | hepatocyte CLint [2] [µL/min/1e6 cells] | Compound | fraction unbound [3] | CL/F (Rattus norvegicus [4]) [mL/min/kg] | solubility [8] [µM] | bioavailability [9] [%] | EC50 (Hexokinase-4) [nM] | other results
1 | < 1 | CC(C)Oc1cc(OCc2ccccc2)cc(C(=O)Nc2ccc(C(=O)O)cn2)c1 | 0.002 | 1850 | – | – | – | clearance [1]: 3.7 mL/min/kg
2 | – | COC[C@H](C)Oc1cc(O[C@@H](C)Cc2ccccc2)cc(C(=O)Nc2ccc(C(=O)O)cn2)c1 | – | 475 | 1350 (≈ 627 µg/mL) | 99 | – | clearance [5]: 4.4 mL/min/kg; hepatocyte CLint [6]: < 1 µL/min/1e6 cells; CL/F (Canis familiaris [7]): 301 mL/min/kg; bioavailability [10]: 100%; Activity (Rattus norvegicus [11]): Dose-dependent effect
3 | – | CC(C)Oc1cc(O[C@@H](C)Cc2ccccc2)cc(C(=O)Nc2ccc(C(=O)O)cn2)c1 | – | 1435 | 8 (≈ 3.48 µg/mL) | 85 | 20 | Activity (Rattus norvegicus [12]): Active
4 | – | COC[C@@H](C)Oc1cc(OC(C)C)cc(C(=O)Nc2ccc(C(=O)O)cn2)c1 | 0.0622 | – | – | – | 5510 | –
5 | – | CC(C)Oc1cc(O[C@H](C)c2ccccc2)cc(C(=O)Nc2ccc(C(=O)O)cn2)c1 | 0.0048 | – | – | – | 950 | –
6 | – | COC[C@H](C)Oc1cc(OC(C)C)cc(C(=O)Nc2ccc(C(=O)O)cn2)c1 | 0.0534 | 43 | > 3140 | 100 | 610 | clearance [1]: 2.3 mL/min/kg; Activity (Rattus norvegicus [13]): Active
7 | < 1 | CC(C)Oc1cc(OCCc2ccsc2)cc(C(=O)Nc2ccc(C(=O)O)cn2)c1 | 0.0026 | 1461 | – | – | – | Activity (Rattus norvegicus [14]): 72 mL/min/kg; %LBF (Rattus norvegicus [15]): 5.3%; clearance [5]: 8.7 mL/min/kg; Activity (Canis familiaris [16]): 31 mL/min/kg; %LBF (Canis familiaris [17]): 28%; hepatocyte CLint [6]: < 1 µL/min/1e6 cells; fraction unbound [18]: 0.0064; CL/F (Canis familiaris [7]): 1359 mL/min/kg
8 | – | CC(C)Oc1cc(O[C@H](C)Cc2ccccc2)cc(C(=O)Nc2ccc(C(=O)O)cn2)c1 | 0.0023 | – | – | – | 90 | –

Row | Compound | hepatocyte CLint [2] [µL/min/1e6 cells] | fraction unbound [3] | CL/F (Rattus norvegicus [4]) [mL/min/kg] | solubility [8] [µM] | bioavailability [9] [%] | EC50 (Hexokinase-4) [nM] | other results
9 | CC(C)Oc1cc(O[C@@H](C)c2ccccc2)cc(C(=O)Nc2ccc(C(=O)O)cn2)c1 | < 1 | – | 171 | – | – | 110 | –

Source: ChEMBL document CHEMBL1147698, “Design of a potent, soluble glucokinase activator with excellent in vivo efficacy” (Bioorg Med Chem Lett, 2006)
